Experimental data published in patent EP2173323B1, “STIMULATING GEL” (LRC Products Limited, priority 2007, dated 2009).

Assays:
[1] = Cooling strength of coolants relative to menthol; conditions: menthol = 100
[2] = Penetration of coolants across body surfaces
Excerpt: By "penetration enhancer" we mean any compound which aids penetration or absorption of coolants (or other active ingredients) into and through body surfaces, for example, compounds which aid penetration of coolants into and through the skin and mucosal membranes. Preferably, penetration enhancers as used herein aid penetration and/or absorption of coolants which are cyclic carboxamides, such as N-cthyl-p-menthane-3-carboxamide, and/or aid penetration and/or absorption of (-)-isopulegol across body surfaces. Such penetration enhancement may potentiate the action of coolants, or other active ingredients. Any suitable penetration enhancer may be used. Preferred penetration enhancers include ethoxy diglycol, limonene, isopropyl palmitate, sodium lauryl sulphate and L-arginine. Optionally, the penetration enhancer may also act as a vasodilator.
Optionally, the compositions further comprise a penetration enhancer. The penetration enhancer can be any compound which aids penetration or absorption of the cyclic carboxamide and/or of isopulegol into and through body surfaces, for example, compounds which aid penetration into and through the skin and mucosal membranes. Any suitable penetration enhancer may be used. Preferred penetration enhancers include ethoxy diglycol, limonene; isopropyl palmitate; and sodium lauryl sulphate. […]

[3] = Crystallisation / clouding at low temperatures; type: physicochemical
[4] = Volatility compared with menthol; type: physicochemical

SMILES | Cooling strength relative to menthol [1] | also measured
C=C(C)C1CCC(C)CC1O (stereo not drawn) [Isopulegol, 2-isopropenyl-5-methyl-cyclohexanol] | 25 | 
N=C(N)NCCC[C@H](N)C(=O)O [L-arginine] |  | penetration enhancement of coolants (cyclic carboxamides and isopulegol) [2]: aids penetration of coolants
CC1CCC(C(C)C)C(O)C1 (stereo not drawn) [Menthol] | 100 | 
CC1CCC(C(C)C)C2(C1)OCC(CO)O2 (stereo not drawn) [Menthone glycerine acetal] | 41 | 
CC1CCC(C(C)C)C(OC(=O)C(C)O)C1 (stereo not drawn) [Menthyl lactate] | 43 | 
CCNC(=O)C1CC(C)CCC1C(C)C (stereo not drawn) [WS-3, N-ethyl-p-menthane-3-carboxamide] | 150 | crystallisation at low temperatures [3]: does not crystallise at low temperatures; volatility [4]: lower volatility than menthol
CNC(=O)C(C)(C(C)C)C(C)C [WS-23] | 75 | 
